Assay [1] deals with Zymoseptoria tritici. The experiment in a line: Leaf Blotch of Wheat (SEPTTR) fungicidal activity. Format: in vivo. The following applies: Low Volume (121.5 g/H). The protocol:
Technical grades of materials were dissolved in acetone, which were then mixed with nine volumes of H2O containing 110 ppm Triton X-100. The fungicide solutions were applied onto wheat seedlings using an automated booth sprayer to run-off. All sprayed plants were allowed to air dry prior to further handling. All fungicides were evaluated using the aforementioned method for their activity vs. all target diseases, unless stated otherwise. Wheat leaf blotch and brown rust activity were also evaluated using track spray applications, in which case the fungicides were formulated as EC formulations, containing 0.1% Trycol 5941 in the spray solutions. Wheat plants (variety Yuma) were grown from seed in a greenhouse in 50% mineral soil/50% soil-less Metro mix until the first leaf was fully emerged, with 7-10 seedlings per pot. These plants were inoculated with an aqueous spore suspension of Zymoseptoria tritici either prior to or after fungicide treatments. After inoculation the plants were kept in 100% relative humidity (one day in a dark dew chamber followed by two to three days in a lighted dew chamber at 20° C.) to permit spores to germinate and infect the leaf. The plants were then transferred to a greenhouse set at 20° C. for disease to develop. When disease symptoms were fully expressed on the 1st leaves of untreated plants, infection levels were assessed on a scale of 0 to 100 percent disease severity. Percent disease control was calculated using the ratio of disease severity on treated plants relative to untreated plants.

For assay [2], the system named is Puccinia triticina. The experiment in a line: Wheat Brown Rust (PUCCRT) fungicidal activity. Format: in vivo. The settings on record: Low Volume (121.5 g/H). How it is done: Technical grades of materials were dissolved in acetone, which were then mixed with nine volumes of H2O containing 110 ppm Triton X-100. The fungicide solutions were applied onto wheat seedlings using an automated booth sprayer to run-off. All sprayed plants were allowed to air dry prior to further handling. All fungicides were evaluated using the aforementioned method for their activity vs. all target diseases, unless stated otherwise. Wheat leaf blotch and brown rust activity were also evaluated using track spray applications, in which case the fungicides were formulated as EC formulations, containing 0.1% Trycol 5941 in the spray solutions. Wheat plants (variety Yuma) were grown from seed in a greenhouse in 50% mineral soil/50% soil-less Metro mix until the first leaf was fully emerged, with 7-10 seedlings per pot. These plants were inoculated with an aqueous spore suspension of Puccinia triticina either prior to or after fungicide treatments. After inoculation the plants were kept in a dark dew room at 22° C. with 100% relative humidity overnight to permit spores to germinate and infect the leaf. The plants were then transferred to a greenhouse set at 24° C. for disease to develop. Fungicide formulation, application and disease assessment followed the procedures as described in the Example A.

Setting [3] is: 24 h, 1 Day Protectant, read-out: SEPTTR 1DP disease control.
Setting [4] is: 72 h, 3 Day Curative, read-out: SEPTTR 3DC disease control.
Where [5] appears, read: 24 h, 1 Day Protectant, read-out: PUCCRT 1DP disease control.
The mark [6] stands for this setting: 72 h, 3 Day Curative, read-out: PUCCRT 3DC disease control.

25 compounds from patent publication US20180002320A1, “USE OF MACROCYCLIC PICOLINAMIDES AS FUNGICIDES” (DOW AGROSCIENCES LLC, priority 2014, published 2018) can be followed below.

Where two headings read alike, the source gives them in different places.

Take `CCC[C@H]1CCCC[C@H](NC(=O)c2nccc(OC)c2OCOC(C)=O)C(=O)O[C@@H](C)[C@@H]1OCC(C)C` [Cmpd 30, ((2-(((3S,8S,9R,10S)-9-isobutoxy-10-methyl-2-oxo-8-propyloxecan-3-yl)carbamoyl)-4-methoxypyridin-3-yl)oxy)methyl acetate]: the pest or weed control at 121.5 g/ha in assay [1] (setting [3]) is under 80%; in assay [1] (setting [4]) it was under 80%; in assay [2] (setting [5]) it was over 80%; in assay [2] (setting [6]), under 80%.

In the case of `COc1ccnc(C(=O)N[C@H]2COCC[C@H](OCc3ccccc3)[C@@H](OCc3ccccc3)[C@H](C)OC2=O)c1OCOC(C)=O` [Compound 1], the values for the pest or weed control at 121.5 g/ha in assay [1] (setting [3]), in assay [1] (setting [4]) and in assay [2] (setting [5]) were over 80%, under 80% and over 80%, respectively.

Take `CCCCO[C@H]1CCOC[C@H](NC(=O)c2nccc(OC)c2OCOC(C)=O)C(=O)O[C@@H](C)[C@@H]1OCc1ccccc1` [Compound 2]: the pest or weed control at 121.5 g/ha in assay [1] (setting [3]) is under 80%; in assay [2] (setting [5]), over 80%; in assay [2] (setting [6]), over 80%.

For `CCCCO[C@H]1CCOC[C@H](NC(=O)c2nccc(OC)c2OCOC(C)=O)C(=O)O[C@@H](C)[C@@H]1OC(=O)c1ccccc1` [Compound 4], the results for the pest or weed control at 121.5 g/ha in assay [1] (setting [3]), in assay [2] (setting [5]) and in assay [2] (setting [6]) were under 80%, over 80% and over 80%, respectively.

Consider `COc1ccnc(C(=O)N[C@H]2CCCC[C@H](OCc3ccccc3)[C@@H](OCc3ccccc3)[C@H](C)OC2=O)c1OCOC(C)=O` [Compound 8], for which the pest or weed control at 121.5 g/ha in assay [1] (setting [3]), in assay [1] (setting [4]), in assay [2] (setting [5]) and in assay [2] (setting [6]) was over 80% in each case.

Turning to `COc1ccnc(C(=O)N[C@H]2CCCC[C@H](OCc3ccccc3)[C@@H](OCc3ccccc3)[C@H](C)OC2=O)c1OC(C)=O` [Compound 9], the pest or weed control at 121.5 g/ha was over 80% in assay [1] (setting [3]), over 80% in assay [1] (setting [4]), over 80% in assay [2] (setting [5]) and under 80% in assay [2] (setting [6]).

For the compound `COc1ccnc(C(=O)N[C@H]2CCCC[C@H](OC)[C@@H](Oc3ccccc3)[C@H](C)OC2=O)c1OCOC(C)=O` [Compound 11], the pest or weed control at 121.5 g/ha in assay [1] (setting [3]), in assay [1] (setting [4]), in assay [2] (setting [5]) and in assay [2] (setting [6]) was over 80% throughout.

In the case of `COc1ccnc(C(=O)N[C@H]2CCCC[C@H](OCC(C)C)[C@@H](Oc3ccccc3)[C@H](C)OC2=O)c1OCOC(C)=O` [Compound 13], the pest or weed control at 121.5 g/ha in assay [1] (setting [3]), in assay [1] (setting [4]), in assay [2] (setting [5]) and in assay [2] (setting [6]) was over 80% in each case.

For `COc1ccnc(C(=O)N[C@H]2CCCC[C@H](OCC(C)C)[C@@H](OCC(C)C)[C@H](C)OC2=O)c1OCOC(C)=O` [Compound 14], the pest or weed control at 121.5 g/ha is over 80% in assay [1] (setting [3]), under 80% in assay [1] (setting [4]), over 80% in assay [2] (setting [5]) and under 80% in assay [2] (setting [6]).

As to `CCCCCO[C@H]1[C@H](C)OC(=O)[C@@H](NC(=O)c2nccc(OC)c2OCOC(C)=O)CCCC[C@@H]1OC(=O)c1ccccc1` [Compound 15], the pest or weed control at 121.5 g/ha in assay [1] (setting [3]) is over 80%; in assay [1] (setting [4]), over 80%; in assay [2] (setting [5]) it was over 80%; in assay [2] (setting [6]) it was under 80%.

Regarding `COc1ccnc(C(=O)N[C@H]2CCOC[C@H](Cc3ccccc3)[C@@H](OCC(C)C)[C@H](C)OC2=O)c1OCOC(C)=O` [Compound 16], the pest or weed control at 121.5 g/ha is under 80% in assay [1] (setting [3]), under 80% in assay [1] (setting [4]), over 80% in assay [2] (setting [5]) and under 80% in assay [2] (setting [6]).

Take `COc1ccnc(C(=O)N[C@H]2CCCC[C@H](Oc3ccccc3)[C@@H](Oc3ccccc3)[C@H](C)OC2=O)c1OCOC(C)=O` [Compound 19]: the pest or weed control at 121.5 g/ha in assay [1] (setting [3]), in assay [1] (setting [4]), in assay [2] (setting [5]) and in assay [2] (setting [6]) was over 80% in each case.

In the case of `COc1ccnc(C(=O)N[C@H]2COCC[C@H](Cc3ccccc3)[C@@H](OCC(C)C)[C@H](C)OC2=O)c1OCOC(C)=O` [Compound 20], the pest or weed control at 121.5 g/ha is under 80% in assay [1] (setting [3]), over 80% in assay [1] (setting [4]), over 80% in assay [2] (setting [5]) and over 80% in assay [2] (setting [6]).

With `COc1ccnc(C(=O)N[C@H]2COCC[C@H](Cc3ccccc3)[C@@H](OCC(C)C)[C@H](C)OC2=O)c1OC(C)=O` [Compound 21], the pest or weed control at 121.5 g/ha was under 80% in assay [1] (setting [3]), over 80% in assay [1] (setting [4]), over 80% in assay [2] (setting [5]) and over 80% in assay [2] (setting [6]).

`COc1ccnc(C(=O)N[C@H]2CCCC[C@H](OC)[C@@H](OC)[C@H](C)OC2=O)c1OCOC(C)=O` [Compound 22]: the pest or weed control at 121.5 g/ha in assay [1] (setting [4]) was under 80%; in assay [2] (setting [5]), over 80%; in assay [2] (setting [6]) it was over 80%.

Take `CCCO[C@H]1CCCC[C@H](NC(=O)c2nccc(OC)c2OCOC(C)=O)C(=O)O[C@@H](C)[C@@H]1Oc1ccccc1` [Compound 23]: the pest or weed control at 121.5 g/ha in assay [1] (setting [3]), in assay [1] (setting [4]), in assay [2] (setting [5]) and in assay [2] (setting [6]) was over 80% in each case.

On to `COc1ccnc(C(=O)N[C@H]2CCCC[C@H](Cc3ccccc3)[C@@H](OCC(C)C)[C@H](C)OC2=O)c1OCOC(C)=O` [Compound 24], for which the pest or weed control at 121.5 g/ha is over 80% in assay [1] (setting [3]), over 80% in assay [1] (setting [4]), over 80% in assay [2] (setting [5]) and under 80% in assay [2] (setting [6]).

For the compound `COc1ccnc(C(=O)N[C@H]2CCCC[C@H](Oc3ccccc3)[C@@H](Oc3ccccc3)[C@H](C)OC2=O)c1OC(C)=O` [Compound 25], the pest or weed control at 121.5 g/ha is over 80% in assay [1] (setting [3]), under 80% in assay [1] (setting [4]), over 80% in assay [2] (setting [5]) and under 80% in assay [2] (setting [6]).

As to `CCCO[C@H]1CCCC[C@H](NC(=O)c2nccc(OC)c2OC(C)=O)C(=O)O[C@@H](C)[C@@H]1Oc1ccccc1` [Compound 26], the pest or weed control at 121.5 g/ha in assay [1] (setting [3]), in assay [1] (setting [4]), in assay [2] (setting [5]) and in assay [2] (setting [6]) was over 80% each time.

Regarding `COc1ccnc(C(=O)N[C@H]2CCCC[C@H](OC)[C@@H](OC)[C@H](C)OC2=O)c1OC(C)=O` [Compound 27], the pest or weed control at 121.5 g/ha is under 80% in assay [1] (setting [3]), over 80% in assay [2] (setting [5]) and over 80% in assay [2] (setting [6]).

On to `COc1ccnc(C(=O)N[C@H]2CCCC[C@H](OC)[C@@H](OCC(C)C)[C@H](C)OC2=O)c1OC(C)=O` [Compound 28], for which the pest or weed control at 121.5 g/ha in assay [1] (setting [3]) was under 80%; in assay [1] (setting [4]), over 80%; in assay [2] (setting [5]), over 80%; in assay [2] (setting [6]) it was over 80%.

For the compound `COc1ccnc(C(=O)N[C@H]2CCCC[C@@H]3OC(C)(C)O[C@H]3[C@H](C)OC2=O)c1OC(C)=O` [Compound 29], the pest or weed control at 121.5 g/ha is under 80% in assay [1] (setting [3]), over 80% in assay [1] (setting [4]), over 80% in assay [2] (setting [5]) and over 80% in assay [2] (setting [6]).

For `CCC[C@H]1CCCC[C@H](NC(=O)c2nccc(OC)c2OCOC(C)=O)C(=O)O[C@@H](C)[C@@H]1OC(=O)C(C)C` [Compound 31], the pest or weed control at 121.5 g/ha in assay [1] (setting [3]) was under 80%; in assay [1] (setting [4]) it was under 80%; in assay [2] (setting [5]) it was over 80%; in assay [2] (setting [6]) it was under 80%.

As for `COc1ccnc(C(=O)N[C@H]2CCCC[C@H](OC3CCCC3)[C@@H](OC)[C@H](C)OC2=O)c1OCOC(C)=O` [Compound 35], the values for the pest or weed control at 121.5 g/ha in assay [2] (setting [5]) and in assay [2] (setting [6]) were over 80% and under 80%, respectively.

For `COc1ccnc(C(=O)N[C@H]2CCOC[C@H](OCC(C)C)[C@@H](OCC(C)C)[C@H](C)OC2=O)c1OCOC(C)=O` [Compound 43], the pest or weed control at 121.5 g/ha in assay [2] (setting [5]) is over 80%; in assay [2] (setting [6]), under 80%.
